{"source": "patent US20130079299A1", "about": "“Arthritis Therapeutic Agent” (GLUCAN CORPORATION, priority 2010, published 2013)", "key": {"[1]": {"test_system": "rheumatoid arthritis (RA) DBA mouse caused by collagen", "assay": "Collagen-induced rheumatoid arthritis (RA) mouse model, histomorphometry of thymus, spleen and knee joint", "assay_type": "in vivo", "excerpt": "Bone tissue was amputated from around the thymus and spleen and fixed in 10% neutral formalin, and was then dehydrated and paraffin embedded to provide a 3-4 μm longitudinal section, then dyed with Hematoxylineosin and observed under an optical microscope. In addition, the knee joint of both the rear legs were removed from the around connective tissue and fixed in 10% neutral formalin, and then it was decalcificated using a decalcification solution containing 24.4% of formic acid and 0.5 N of sodium hydroxide for 5 days. […] Then the section was dyed with Hematoxylineosin and observed under the optical microscope. […] DMI, Korea) in the view of a 40×-magnification microscope, and the thickness of articular cartilage of the femur and tibia of the knee joint, the proteoglycan loss, and erosion were evaluated by an automated image analyzer (DMI-300 Image Processing; DMI, Korea) in the view of a 100×-magnification microscope according to the known method [Dudler et al., 2000; van Holten et al., 20 04; Kim et al., 2007]. The proteoglycan loss was evaluated into 3 levels for stainability of Safranin O dye specialized for proteoglycans according to the known method [Williams et al., 1992; Dudler et al., 2000; van Holten et al., 2004]. In other words, 0 indicates no proteoglycan loss, and 3 indicates no stainability because of complete deflection. […] The RA(Rhematoid Arthritis)-induced mouse model using collagen is one of the animal models that are widely used for evaluating the efficacy on RA for various materials [Liu et al., 2008; Miyake et al., 2008; Pa nayi et al., 2008], and RA was caused by the auto-immunity."}, "[2]": {"test_system": "Sprague-Dawley rats caused to have osteoarthritis", "assay": "Osteoarthritis caused by anterior cruciate ligament transection and partial medial meniscectomy, 84 days administration", "protocol": "Sprague-Dawley rats (male, 6 week-old, SLC., JAPAN) [ANNEX I-III] were prepared as laboratory animals.\nSix experimental groups were formed, with 8 Sprague-Dawley Rats in each group. […] In addition, a negative control group was an OA control group which was treated with nothing after causing osteoarthritis, and a positive control group was administered 2 mg/kg of diclofenac sodium after causing osteoarthritis.\nThe medium for the administration was sterilized distilled water at 5 ml/kg.\nFor the positive control, 2 mg/kg of the diclofenac sodium was transdermally administered at 1 ml/kg of normal saline as a medium every day for 84 days.\nEach experimental rat was anesthetized with Zoletile 50 (Vir bac Lab., France), and the left articular capsule was exposed and underwent anterior cruciate ligament transaction and partial medial meniscectomy to cause osteoarthritis. For the sham surgery group, the articular capsule was excised to observe the medial meniscus inside the organ and closed without surgical removal.\nWeight change and knee joint thickness change were monitored and measured once a week for 84 days from administration, and on the final day, the maximum stretching angle of the knee joint and the knee joint thickness after exposing the capsule were measured under Safranin O dye, respectively. The Makin scores of the femur and tibia and the cartilage thickness were then histomorphometrically measured, and the articular cartilages of the femur and tibia were each evaluated for BrdU immunoreactivity."}, "[3]": {"conditions": "Diclofenac sodium treated group (dose not given)"}, "[4]": {"conditions": "Diclofenac sodium treated group (dose not given), average ± SD of 8 animals"}, "[5]": {"conditions": "Diclofenac sodium treated group (dose not given), ± SD of 16 joints"}, "[6]": {"conditions": "diclofenac sodium group (dose not given)"}, "[7]": {"conditions": "diclofenac sodium 2 mg/kg transdermal daily 84 days"}}}
{"smiles": "O=C(O)Cc1ccccc1Nc1c(Cl)cccc1Cl", "note": "[Diclofenac sodium, diclofenac sodium]", "values": [{"measurement": "Cortex thickness (thymus)", "setting": "[1]; [3]", "result": "1.333 ± 0.705", "unit": "mm/lobules"}, {"measurement": "Total thickness (thymus)", "setting": "[1]; [3]", "result": "1.941 ± 0.916", "unit": "mm/lobules"}, {"measurement": "Entire thickness (spleen)", "setting": "[1]; [4]", "result": "4.464 ± 0.58", "unit": "mm/central part"}, {"measurement": "Number of white medulla (spleen)", "setting": "[1]; [4]", "result": "10.500 ± 2.121 /1 mm^2"}, {"measurement": "Thickness of white medulla (spleen)", "setting": "[1]; [4]", "result": "0.986 ± 0.304", "unit": "mm/white medulla"}, {"measurement": "Erosion level (Max = 3), femur articular cartilage", "setting": "[1]; [5]", "result": "1.000 ± 0.000"}, {"measurement": "Erosion level (Max = 4), tibia articular cartilage", "setting": "[1]; [5]", "result": "0.500 ± 1.000"}, {"measurement": "Safranin level (Max = 3), femur articular cartilage", "setting": "[1]; [5]", "result": "0.500 ± 0.577"}, {"measurement": "Safranin level (Max = 3), tibia articular cartilage", "setting": "[1]; [5]", "result": "1.500 ± 0.577"}, {"measurement": "Thickness (mm) of tibia articular cartilage", "setting": "[1]; [5]", "result": "0.169 ± 0.024", "unit": "mm"}, {"measurement": "Thickness of the femur articular cartilage", "setting": "[1]; [5]", "result": "0.470 ± 0.674", "unit": "mm"}, {"measurement": "collagen-induced RA opinion (proteoglycan loss, erosion, cartilage thickness of knee joint)", "setting": "[1]; all Polycan groups except 21.25 mg/kg in the tibia, diclofenac sodium group", "result": "remarkably suppressed"}, {"measurement": "Safranin O score of femur articular cartilage, change compared to the RA control group", "setting": "[1]; [6]", "result": "−63.64", "unit": "%"}, {"measurement": "Safranin O score of the tibia articular cartilage, change compared to the RA control group", "setting": "[1]; [6]", "result": "−29.41", "unit": "%"}, {"measurement": "diameter of the spleen white medulla, change compared to the RA control group", "setting": "[1]; [6]", "result": "−8.14", "unit": "%"}, {"measurement": "entire spleen thickness, change compared to the RA control group", "setting": "[1]; [6]", "result": 17.49, "unit": "%"}, {"measurement": "entire thymus thickness, change compared to the RA control group", "setting": "[1]; [6]", "result": "−2.80", "unit": "%"}, {"measurement": "erosion score of the femur articular cartilage, change compared to the RA control group", "setting": "[1]; [6]", "result": "−36.00", "unit": "%"}, {"measurement": "erosion score of the tibia articular cartilage, change compared to the RA control group", "setting": "[1]; [6]", "result": "−75.00", "unit": "%"}, {"measurement": "number of spleen white medulla, change compared to the RA control group", "setting": "[1]; [6]", "result": 5.00, "unit": "%"}, {"measurement": "thickness of the femur joint cartilage, change compared to the RA control group", "setting": "[1]; [6]", "result": 333.70, "unit": "%"}, {"measurement": "thickness of the thymus cortex, change compared to the RA control group", "setting": "[1]; [6]", "result": 18.83, "unit": "%"}, {"measurement": "thickness of the tibia articular cartilage, change compared to the RA control group", "setting": "[1]; [6]", "result": 38.75, "unit": "%"}, {"measurement": "BrdU immunoreactive cell number in the femur articular cartilage, change compared to the OA control group", "setting": "[2]; [7]", "result": 9.52, "unit": "%"}, {"measurement": "BrdU immunoreactive cell number in the tibia articular cartilage, change compared to the OA control group", "setting": "[2]; [7]", "result": 1.56, "unit": "%"}, {"measurement": "Mankin score of the femur, change compared to the OA control group", "setting": "[2]; [7]", "result": "−27.85", "unit": "%"}, {"measurement": "Mankin score of the tibia, change compared to the OA control group", "setting": "[2]; [7]", "result": "−20.59", "unit": "%"}, {"measurement": "maximum stretching angle of knee joint, change compared to the OA control group", "setting": "[2]; [7]", "result": "−18.18", "unit": "%"}, {"measurement": "thickness of the knee joint after exposing the joint capsule, change compared to the OA control group", "setting": "[2]; [7]", "result": "−0.99", "unit": "%"}, {"measurement": "thickness of the knee joint in the final autopsy, change compared to the OA control group", "setting": "[2]; [7]", "result": "−5.79", "unit": "%"}, {"measurement": "articular cartilage thickness of the femur, change compared to the OA control group", "setting": "[2]; diclofenac sodium 2 mg/kg transdermal daily 84 days, b105", "result": 35.11, "unit": "%"}, {"measurement": "thickness of the knee joint compared to osteoarthritis-caused control group over time", "setting": "[2]; each of the three-dose Polycan and diclofenac sodium groups, from 21 days after administration, p<0.01 or p<0.05", "result": "significantly decreased"}]}
